Measurements from patent publication US12390447B2, “Sirtuin 6 protein deacylase (SIRT6) activators” (Wisconsin Alumni Research Foundation, priority 2019, dated 2025).

Columns and labels:
Format in all cases: biochemical
[1] = target: T1, SIRT6 (Homo sapiens, UniProt Q8N6T7); assay: Small molecule SIRT6 activator screen (H3K9ac peptide deacetylation, HPLC); conditions: compound 100 μM; SIRT6 1 μM; H3K9ac peptide 20 μM; 0.5 mM NAD+
Description: Mastermix containing SIRT6, buffer, and H3K9ac peptide were distributed to wells using Microflex peristaltic dispenser (Beckman). Plates were spun and preheated to 37° C. before addition of NAD^+ using peristaltic dispenser. After 60 minutes reactions were quenched with 2% TFA final using peristaltic dispenser then sealed and spun again before in-house HPLC separation and quantification of substrate and product peptides. Reaction conditions were 1 μM SIRT6, 0.5 mM NAD^+, […] (4-16), 20 mM potassium phosphate pH 7.5, 10% DMSO, and either 10 or 100 μM compound determined by 10-fold dilution of stock library concentration.
All sirtuin deacylation assays were carried out at 37° C. in 20 mM potassium phosphate pH 7.5 with 0.5 mM NAD^+, 10% DMSO, and 20 μM H3K9ac or H3K9myr peptides, unless otherwise noted in legend, and quenched by the addition of 2% TFA final. Steady-state reactions were constrained to less than 20% substrate turnover to prevent product inhibition. A variety of times were required to monitor SIRT6 deacetylation (2-60 minutes) under this restraint given the ability to strongly activate catalysis. In these cases, specific activities were determined and either reported as is or as fold-activation of specific activity. […] Deacetylation reactions were analyzed using a gradient of 33-100% B (30% acetonitrile with 0.05% TFA) in 8 min at 1.6 mL min^−1. Demyristoylation reactions were analyzed using a gradient of 3 to 100% B (acetonitrile with 0.05% TFA) in 10 min at 1.6 mL min^−1. The product and substrate peaks were quantified and ratio of these allowed for quantification of product formation.

[2] = target: T1, SIRT6; assay: SIRT6 deacetylation of H3K9ac peptide, fold-activation versus activator concentration; conditions: for EC50: H3K9ac peptide 20 μM, sigmoidal curve fit
Description: (1A) Compound libraries BML-2803, BML-2800, and an additional set of 178 molecules were screened at 100 μM for their ability to stimulate SIRT6 (1 μM) deacetylation of H3K9ac peptide (20 μM) in the presence of 0.5 mM NAD^+. SIRT6 activity was measured by HPLC quantification of H3K9ac and deacetylated product (inset) and fold activations relative to DMSO control were determined and compiled. (1B) Fold-activation of SIRT6 (1 μM) determined in the presence of either 0-400 μM CL4, 0-150 μM TTNPB, 0-100 μM Lysophosphatidic acid (LPA), or 0-200 μM linoleoylglycine (LGly). Maximum fold-activation and EC50 determined by sigmoidal curve fit. (1C) Steady-state kinetic analysis of SIRT6 (1 μM) deacetylation was conducted with 0-250 μM H3K9ac peptide in the presence of 100 μM CL4, 50 μM TTNPB, 50 μM LPA, or 50 μM LGly. Constants Km, H3K9ac and kcat were determined by fitting data to Michaelis-Menten equation. (1D) Fold-activations of SIRT1 (0.1 μM), SIRT2 (0.2 μM), SIRT3 (1 μM), SIRT5 (2 μM), and SIRT6 (1 μM) determined in the presence of CL4 (100 μM), TTNPB (50 μM), and LPA (50 μM) relative to DMSO control against 20 μM H3K9ac peptide and 0.5 mM NAD^+. Mean values reported with error bars representing standard deviation of at least three replicates.
All sirtuin deacylation assays were carried out at 37° C. in 20 mM potassium phosphate pH 7.5 with 0.5 mM NAD^+, 10% DMSO, and 20 μM H3K9ac or H3K9myr peptides, unless otherwise noted in legend, and quenched by the addition of 2% TFA final. Steady-state reactions were constrained to less than 20% substrate turnover to prevent product inhibition. A variety of times were required to monitor SIRT6 deacetylation (2-60 minutes) under this restraint given the ability to strongly activate catalysis. In these cases, specific activities were determined and either reported as is or as fold-activation of specific activity. Deacylation reactions were analyzed by reversed phase high-performance liquid chromatography on a Kinetex C18 column (100 Å, 100×4.6 mm, 2.6 μm, Phenomenex) by monitoring the formation of the deacylated product at 214 nm. Deacetylation reactions were analyzed using a gradient of 33-100% B (30% acetonitrile with 0.05% TFA) in 8 min at 1.6 mL min^−1. Demyristoylation reactions were analyzed using a gradient of 3 to 100% B (acetonitrile with 0.05% TFA) in 10 min at 1.6 mL min^−1. The product and substrate peaks were quantified and ratio of these allowed for quantification of product formation. […]

[3] = target: T1, SIRT6; assay: Histone deacetylation assay with acid extracted histones, H3K9ac immunoblot; conditions: 50 μM compound; histones 75 μg/mL from SAHA-treated HEK293T cells; SIRT6 1 μM
Description: HEK293T cells were cultured in Dulbecco's Modified Eagle Medium supplemented with 10% fetal bovine serum. Cells were treated with 10 μM SAHA for 24 hours prior to harvest. Cells were trypsinized and pelleted prior to washing twice with ice-cold PBS. Cells were then resuspended in 800 μL ice-cold 10 mM HEPES pH 7.4, 10 mM KCl, 0.05% NP-40, and histone deacetylase and protease inhibitors (1 mM sodium butyrate, 4 μM trichostatin A, 100 μM phenylmethylsulfonyl fluoride, 10 μg/mL leupeptin, and 10 μg/mL aprotinin) for 20 minutes. After a 1,000×g 10 minute spin at 4° C. the pelleted nuclei were resuspended in 0.2 M HCl and incubated on ice for 20 minutes. Following 10 minute spin at 21,000×g at 4° C. the acid extracted supernatant was neutralized with 1 M Tris-HCl pH 8 prior to BCA protein concentration measurement. Histone deacetylation assays were ran with 75 μg/mL extracted histones, 1 μM SIRT6, 50 μM CL5, CL5D or 5% DMSO control, 0.5 mM NAD^+, in 20 mM potassium phosphate pH 7.5. Reactions ran at 37° C. prior to quench with SDS loading dye and 5 minute boil. 540 ng of nuclei acid extract following sirtuin reaction were loaded for 15% SDS-PAGE followed by transfer to nitrocellulose. Membrane was blocked with 1% milk before blotted with anti-H3K9ac (Active Motiff 39917) 1:3000 and imaged. […] Bands were quantified using Image Studio Lite (LiCor). […]

T1 sequence (Q8N6T7 whole entry): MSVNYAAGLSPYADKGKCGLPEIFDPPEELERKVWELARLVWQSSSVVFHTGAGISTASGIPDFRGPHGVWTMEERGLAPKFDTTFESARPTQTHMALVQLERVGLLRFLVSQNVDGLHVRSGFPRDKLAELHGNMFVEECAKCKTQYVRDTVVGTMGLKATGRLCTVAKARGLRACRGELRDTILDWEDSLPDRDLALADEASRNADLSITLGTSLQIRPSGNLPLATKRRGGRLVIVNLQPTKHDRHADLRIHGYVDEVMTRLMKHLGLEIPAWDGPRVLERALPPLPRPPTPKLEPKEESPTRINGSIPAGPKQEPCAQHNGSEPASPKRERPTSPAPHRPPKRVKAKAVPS

Molecule | F.A. (fold-activation of SIRT6 relative to DMSO control) [1] [fold] | other results
CCCCCCCCCCCCCCC(F)C(=O)O (stereo not shown) [2-Fluoropalmitic acid] | 25 | –
CCCCC/C=C\C/C=C\C/C=C\C/C=C\CCCC(=O)O [Arachidonic acid (20:4 n-6)] | 15 | –
O=C(O)c1ccc2c(c1)C(=O)N(c1ccc(NC(=O)c3ccccc3)cc1)C2=O [CL-5, 2-(4-benzamidophenyl)-1,3-dioxoisoindoline-5-carboxylic acid] | – | concentration required to stimulate 4-fold activation of SIRT6 ([2]; SIRT6 1 μM, H3K9ac 20 μM, 0.5 mM NAD+): >400 µM; activation of SIRT6 (in words) ([2]; concentrations up to 400 μM): no activation; SIRT6 deacetylation at H3K9 of whole histone substrate (in words) [3]: not
C/C(=C\c1ccc(C(=O)O)cc1)c1ccc2c(c1)C(C)(C)CCC2(C)C [TTNPB, arotinoid acid, reference compound] | – | EC50 ([2]; SIRT6 1 μM, 0.5 mM NAD+): 53 ± 3 µM
CCCCCCCC/C=C\CCCCCCCC(=O)OCC(O)COP(=O)(O)O (stereo not shown) [Lysophosphatidic acid, oleoyl-lysophosphatidic acid, reference compound] | – | EC50 ([2]; SIRT6 1 μM, 0.5 mM NAD+): 25 ± 1 µM

Continued, in another order:

F.A. (fold-activation of SIRT6 relative to DMSO control) [1] [fold] | Molecule | other results
3.7 | CCCCCCCCCCCCCC(=O)O [myristic acid] | –
16 | CCCCCCCC/C=C\C/C=C\C/C=C\CCCC(=O)O [Mead acid (20:3 n-9)] | –
17 | Eicosatrienoic acid (20:3 n-3) | –
